Experiments:
Format in all cases: in vivo
[1] = tested on: Alfalfa; assay: Preemergence herbicidal activity, % control of plant growth
Text: (§1) By "preemergence" is meant that the compound is applied to the soil prior to emergence of the weed species sought to be controlled. This term, as used herein, also means the application of the herbicidal compounds falling within the scope of this disclosure to areas wherein useful or desirable plants are either growing or have been sown, but where the undesirable plants sought to be controlled have not as yet emerged.
(§2) In using the compound, seeds of the types of plants set forth in Table II were sown in fresh soil. In the preemergence test the soil was sprayed with a solution of the test compound immediately after the seeds were planted, and before any noticeable growth developed. The solution was about a 2 percent by weight solution of the compound in acetone and/or alcohol. The compound was applied at the rate of 16 pounds per acre of soil surface.
(§3) Approximately 3 weeks after spray application, the herbicidal activity of the compound was determined by visual observation of the treated area in comparison with untreated control areas. These observations are reported below in Table II wherein the average activity rating is reported as the percent control of plant growth.
(§4) *Preemergence test: compound applied at rate of 16 lb/acre

[2] = tested on: Barnyard Grass; assay: as above; conditions: Echinochloa crus-galli, pre-emergence, 504 h; barnyard grass; 16 lb/acre; about 3 weeks
Text: as §1, §2, §3, §4

[3] = tested on: Cheatgrass; assay: as above
Text: as §1, §2, §3, §4

[4] = tested on: Chickweed; assay: as above
Text: as §1, §2, §3, §4

[5] = tested on: Corn; assay: as above
Text: as §1, §2, §3, §4

[6] = tested on: Crabgrass; assay: as above
Text: as §1, §2, §3, §4

[7] = tested on: Cucumber; assay: as above
Text: as §1, §2, §3, §4

[8] = tested on: Curled Dock; assay: as above
Text: as §1, §2, §3, §4

[9] = tested on: Foxtail; assay: as above; conditions: Setaria, pre-emergence, 504 h, 16 lb/acre, about 3 weeks
Text: as §1, §2, §3, §4

[10] = tested on: Johnsongrass; assay: as above; conditions: Sorghum halepense, pre-emergence, 504 h, 16 lb/acre, about 3 weeks
Text: as §1, §2, §3, §4

[11] = tested on: Lambsquarters; assay: as above
Text: as §1, §2, §3, §4

[12] = tested on: Nutgrass; assay: as above; conditions: pre-emergence, 504 h, 16 lb/acre, about 3 weeks
Text: as §1, §2, §3, §4

[13] = tested on: Pigweed; assay: as above
Text: as §1, §2, §3, §4

[14] = tested on: Snapbeans; assay: as above
Text: as §1, §2, §3, §4

[15] = tested on: Velvetleaf; assay: as above; conditions: Abutilon theophrasti, pre-emergence, 504 h, 16 lb/acre, about 3 weeks
Text: as §1, §2, §3, §4

[16] = tested on: Wild Oats; assay: as above; conditions: Avena fatua, pre-emergence, 504 h, 16 lb/acre, about 3 weeks
Text: as §1, §2, §3, §4

[17] = tested on: Yellow Rocket; assay: as above; conditions: pre-emergence, 504 h, 16 lb/acre, about 3 weeks
Text: as §1, §2, §3, §4

[18] = tested on: Alfalfa; assay: Postemergence herbicidal activity, % control of plant growth; conditions: Medicago sativa, post-emergence, 264 h, 8 lb/acre, about 11 days
Text: (§5) By the term "postemergence" is meant that the compound is applied to the plant sought to be controlled after it has emerged from the soil surface. This term is also used to describe the application of herbicidally active compounds to soil surface in and around growing plants sought to be controlled for purposes of effecting root absorption by the undesirable plant species.
(§6) In the postemergence test the soil and developing plants were sprayed approximately 2 weeks after the seeds were sown. The compound was applied at the rate of 8 pounds per acre from about a 2 percent by weight solution of the test compound in acetone and/or alcohol. The postemergence herbicidal activity was measured in the same way as the preemergence activity; i.e. visual observation approximately 11 days after spraying, and expressed as the percent control of plant growth.
(§7) **Postemergence test: compound applied at rate of 8 lb/acre

[19] = tested on: Barnyard Grass; assay: as above; conditions: Echinochloa crus-galli, post-emergence, 264 h, 8 lb/acre, about 11 days
Text: as §5, §6, §7

[20] = tested on: Cheatgrass; assay: as above; conditions: Bromus tectorum, post-emergence, 264 h, 8 lb/acre, about 11 days
Text: as §5, §6, §7

[21] = tested on: Chickweed; assay: as above; conditions: post-emergence, 264 h, 8 lb/acre, about 11 days
Text: as §5, §6, §7

[22] = tested on: Corn; assay: as above; conditions: Zea mays, post-emergence, 264 h, 8 lb/acre, about 11 days
Text: as §5, §6, §7

[23] = tested on: Crabgrass; assay: as above; conditions: Digitaria sanguinalis, post-emergence, 264 h, 8 lb/acre, about 11 days
Text: as §5, §6, §7

[24] = tested on: Cucumber; assay: as above; conditions: Cucumis sativus, post-emergence, 264 h, 8 lb/acre, about 11 days
Text: as §5, §6, §7

[25] = tested on: Curled Dock; assay: as above; conditions: post-emergence, 264 h, 8 lb/acre, about 11 days
Text: as §5, §6, §7

[26] = tested on: Foxtail; assay: as above; conditions: Setaria, post-emergence, 264 h, 8 lb/acre, about 11 days
Text: as §5, §6, §7

[27] = tested on: Johnsongrass; assay: as above; conditions: Sorghum halepense, post-emergence, 264 h, 8 lb/acre, about 11 days
Text: as §5, §6, §7

[28] = tested on: Lambsquarters; assay: as above; conditions: Chenopodium album, post-emergence, 264 h, 8 lb/acre, about 11 days
Text: as §5, §6, §7

[29] = tested on: Nutgrass; assay: as above; conditions: post-emergence, 264 h, 8 lb/acre, about 11 days
Text: as §5, §6, §7

[30] = tested on: Pigweed; assay: as above; conditions: Amaranthus retroflexus, post-emergence, 264 h, 8 lb/acre, about 11 days
Text: as §5, §6, §7

[31] = tested on: Snapbeans; assay: as above; conditions: post-emergence, 264 h, 8 lb/acre, about 11 days
Text: as §5, §6, §7

[32] = tested on: Velvetleaf; assay: as above; conditions: Abutilon theophrasti, post-emergence, 264 h, 8 lb/acre, about 11 days
Text: as §5, §6, §7

[33] = tested on: Wild Oats; assay: as above; conditions: Avena fatua, post-emergence, 264 h, 8 lb/acre, about 11 days
Text: as §5, §6, §7

[34] = tested on: Yellow Rocket; assay: as above; conditions: post-emergence, 264 h, 8 lb/acre, about 11 days
Text: as §5, §6, §7

[35] = pre-emergence, 504 h, 16 lb/acre, about 3 weeks

O=c1[nH]c2cccnc2c(=O)n1Cc1ccccc1 [3-benzyl-pyrido[3,2-d]pyrimidine-[2,4(1H,3H)-dione]
herbicidal activity/control ([1]; 16 pounds per acre): total preemergence activity
pest or weed control at 17933.6 g/ha ([1]; Medicago sativa, pre-emergence, 504 h, 16 lb/acre, about 3 weeks): 100%
pest or weed control at 17933.6 g/ha [2]: 90%
herbicidal activity/control ([3]; 16 pounds per acre): total preemergence activity
pest or weed control at 17933.6 g/ha ([3]; Bromus tectorum, pre-emergence, 504 h, 16 lb/acre, about 3 weeks): 100%
herbicidal activity/control ([4]; 16 pounds per acre): total preemergence activity
pest or weed control at 17933.6 g/ha [4, 35]: 100%
herbicidal activity/control ([5]; 16 pounds per acre): no preemergence herbicidal activity
plant injury at 17933.6 g/ha ([5]; Zea mays, pre-emergence, 504 h, 16 lb/acre, about 3 weeks): 10%
herbicidal activity/control ([6]; 16 pounds per acre): total preemergence activity
pest or weed control at 17933.6 g/ha ([6]; Digitaria sanguinalis, pre-emergence, 504 h, 16 lb/acre, about 3 weeks): 100%
herbicidal activity/control ([7]; 16 pounds per acre): no preemergence herbicidal activity
pest or weed control at 17933.6 g/ha ([7]; Cucumis sativus, pre-emergence, 504 h, 16 lb/acre, about 3 weeks): 0%
herbicidal activity/control ([8]; 16 pounds per acre): total preemergence activity
pest or weed control at 17933.6 g/ha [8, 35]: 100%
pest or weed control at 17933.6 g/ha [9]: 90%
pest or weed control at 17933.6 g/ha [10]: 90%
herbicidal activity/control ([11]; 16 pounds per acre): total preemergence activity
pest or weed control at 17933.6 g/ha ([11]; Chenopodium album, pre-emergence, 504 h, 16 lb/acre, about 3 weeks): 100%
pest or weed control at 17933.6 g/ha [12]: 0%
herbicidal activity/control ([13]; 16 pounds per acre): total preemergence activity
pest or weed control at 17933.6 g/ha ([13]; Amaranthus retroflexus, pre-emergence, 504 h, 16 lb/acre, about 3 weeks): 100%
herbicidal activity/control ([14]; 16 pounds per acre): no preemergence herbicidal activity
pest or weed control at 17933.6 g/ha [14, 35]: 10%
pest or weed control at 17933.6 g/ha [15]: 90%
pest or weed control at 17933.6 g/ha [16]: 30%
pest or weed control at 17933.6 g/ha [17]: 90%
pest or weed control at 8966.8 g/ha [18]: 0%
pest or weed control at 8966.8 g/ha [19]: 0%
pest or weed control at 8966.8 g/ha [20]: 0%
pest or weed control at 8966.8 g/ha [21]: 100%
plant injury at 8966.8 g/ha [22]: 0%
pest or weed control at 8966.8 g/ha [23]: 40%
pest or weed control at 8966.8 g/ha [24]: 10%
pest or weed control at 8966.8 g/ha [25]: 0%
pest or weed control at 8966.8 g/ha [26]: 0%
pest or weed control at 8966.8 g/ha [27]: 0%
pest or weed control at 8966.8 g/ha [28]: 60%
pest or weed control at 8966.8 g/ha [29]: 0%
pest or weed control at 8966.8 g/ha [30]: 100%
pest or weed control at 8966.8 g/ha [31]: 0%
pest or weed control at 8966.8 g/ha [32]: 30%
pest or weed control at 8966.8 g/ha [33]: 0%
pest or weed control at 8966.8 g/ha [34]: 70%

Source: patent US3960877A, “N-monosubstituted-2,3-pyridinedicarboxamides, and related compounds” (priority 1974, dated 1976)
